Results taken from patent US11866416B2, “Streptococcus mutans glucosyl transferase inhibitors for dental caries therapy” (UAB Research Foundation, priority 2018, dated 2024).
Converted amounts (≈) assume the structure as drawn. Where two headings read alike, the source gives them in different places.

What was measured:
S. mutans = assay: microbe, parasite or virus in culture; format: cell-based, Streptococcus mutans; details: Streptococcus mutans, >300 = no inhibition up to 300 μM, read-out: Growth Inhibition MIC50
Procedure: Cell viability of S. mutans, S. gordonii, S. sanguinis, Aggregatibacter actinomycetemcomitans and Actinomyces. […] The number of colony-forming units (CFU) per milliliter of each sample treated with selected compounds at different concentrations was enumerated after incubation for 24 h at 37° C. and compared to the values obtained from the DMSO control group. Overnight broth cultures were transferred by 1:50 dilutions into fresh THB medium and were allowed to grow until mid-exponential phase (OD470 nm 0.6) before transfer to 96-well plates containing desired concentration of the compound. After 16 h incubation, bacterial growth was measured at OD470, and normalized to the DMSO control (100%).
Cell viability of S. mutans and commensal S. gordonii and S. sanguinis. Effects of lead small molecules on cell viability were examined. The number of colony-forming units (CFU) per milliliter for each compound at different concentrations was determined after incubation for 24 h at 37° C. and compared to the values obtained from the DMSO control group.
Cell viability of S. mutans and commensal S. gordonii and S. sanguinis. […] DMSO served as a control group and provided a relative comparison for the number of colony-forming units (CFU) per milliliter for each compound at different concentrations was determined after incubation for 24 h at 37° C. The final concentration of DMSO used in the assays was 1%.

S. mutans biofilm = S. mutans biofilm formation and inhibition assay (96-well plates, crystal violet); format: cell-based, Streptococcus mutans; details: for IC50: Streptococcus mutans, read-out: Biofilm Inhibition IC50
Procedure: Biofilm assays using 96-well flat-bottom polystyrene microtiter plates were performed to evaluate S. mutans biofilm formation at various conditions as described (Liu et al. (2011) Antimicrobial Agents and Chemotherapy 55, 2679; Zhang et al. (2015) International Journal of Antimicrobial Agents 46, 174), the disclosures of which are incorporated herein by reference in their entirety). Each assay was replicated three times. Compounds that inhibited biofilm formation at minimum concentration (MBIC) were determined by serial dilutions.
S. mutans biofilm formation and inhibition assays. […] Each assay was replicated three times. Minimum biofilm inhibitory concentration (MBIC) of compounds was determined by serial dilutions.
S. mutans biofilm formation and inhibition assays. Biofilm assays using 96-well flat-bottom polystyrene microtiter plates were performed to evaluate S. mutans biofilm formation at various conditions as described. Each assay was replicated […]. Compounds that inhibited 50% biofilm formation were determined by serial dilutions.
S. mutans biofilm formation and inhibition assays. A well-established protocol to study S. mutans biofilm formation in 96-well flat-bottom polystyrene microtiter plates was used, in triplicate (Mattos-Graner, R. O.; Napimoga, M. H.; Fukushima, K.; Duncan, M. J.; Smith, D. J., Comparative analysis of Gtf isozyme production and diversity in isolates of Streptococcus mutans with different biofilm growth phenotypes. Journal of clinical microbiology 2004, 42 (10), 4586-4592). The stock solutions were made up in 100% DMSO, and final concentration of DMSO used in the assays was 1%. Minimum biofilm inhibitory concentration (MBIC) of compounds was determined by serial dilutions.

[1] = Table 1, >500 = no inhibition up to 500 μM
[2] = Table 5, >500 = no inhibition up to 500 μM

Structure (SMILES) | MIC50 (S. mutans; Table 2) [µM] | IC50 (S. mutans biofilm; [1]) [µM] | IC50 (S. mutans biofilm; Table 2) [µM] | also measured
COC(=O)c1cccc(NC(=O)c2cnc3ccccc3c2)c1 [AA] | > 300 | 147 | 147 | 
COC(=O)c1cccc(NC(=O)c2cc3cc([N+](=O)[O-])ccc3[nH]2)c1 [AB] | > 300 | 31.4 | 31.4 | 
COC(=O)c1ccc(NC(=O)c2cc3cc([N+](=O)[O-])ccc3o2)cc1 [AC] | > 300 | 144 | 144 | 
Cc1ccc(S(=O)(=O)Nc2cccc(NC(=O)c3cc4cc([N+](=O)[O-])ccc4s3)c2)cc1 [AD] | > 300 | 63.7 | 63.7 | 
COC(=O)c1cccc(NC(=O)c2cc3cc([N+](=O)[O-])ccc3o2)c1 [AE] | > 300 | 2.7 | 2.7 | 
NC(=O)c1ccccc1OC(=O)c1cc2ccccc2s1 [AF] |  | > 500 |  | 
NC(=O)c1ccc(NC(=O)c2cc3cc([N+](=O)[O-])ccc3o2)cc1 [AG] |  | 239 |  | 
NCc1ccccc1NC(=O)c1ccc2ccccc2c1 [AH] | > 300 | 160 | 160 | 
CC(C)(C)OC(=O)NCc1ccccc1NC(=O)c1cc2ccccc2s1 [AI] | > 300 | 43.4 | 43.4 | 
CC(C)(C)OC(=O)NCc1ccccc1NC(=O)c1cc2cc([N+](=O)[O-])ccc2s1 [AJ] | > 300 | 51.5 | 51.5 | 
CC(C)(C)OC(=O)NCc1ccccc1NC(=O)c1cnc2ccccc2c1 [AK] | > 300 | 52.8 | 52.8 | 
NCc1ccccc1NC(=O)c1cnc2ccccc2c1 [AL] | > 300 | 136 | 136 | 
NCc1ccccc1NC(=O)c1cc2cc([N+](=O)[O-])ccc2s1 [AM] | > 300 | 106 | 106 | 
NCc1ccccc1NC(=O)c1cccc2ccccc12 [AN] | > 300 | 93.3 | 93.3 | 
CC(C)(C)OC(=O)NCc1ccccc1NC(=O)c1ccc2ccccc2c1 [AO] | > 300 | 56.8 | 56.8 | 
COc1cc(OC)c(-c2oc3ccccc3c(=O)c2O)cc1OC [AP-I-240] |  |  |  | MIC50 (S. mutans; Table 3, NI = no inhibition up to 400 μM): 15.3 ± 3 µM (≈ 5.02 µg/mL); IC50 (S. mutans biofilm; Table 3): 10.1 ± 1 µM
CC(C)(C)OC(=O)NCc1ccccc1NC(=O)c1ccc2ccccc2n1 [AP] | > 300 | 67.5 | 67.5 | 
NC(=O)c1ccccc1OC(=O)c1ccc(-c2ccccc2)cc1 [AQ] | > 300 | 55.6 | 55.6 | 
NC(=O)c1cccc(NC(=O)c2ccc(-c3ccccc3)cc2)c1 [AR] | > 300 | 79.9 | 79.9 | 
NC(=O)c1ccccc1NC(=O)c1ccc2ccccc2c1 [AS] |  | 84.1 |  | 
NC(=O)c1cccc(NC(=O)c2ccc3ccccc3c2)c1 [AT] | > 300 | 67.7 | 67.7 | 
NC(=O)c1ccccc1NC(=O)c1ccc(-c2ccccc2)cc1 [AU] |  | > 500 |  | 
NC(=O)c1cccc(NC(=O)c2ccc3ccccc3n2)c1 [AV] | > 300 | 111 | 111 | 
NC(=O)c1ccc(NC(=O)c2ccc3ccccc3c2)cc1 [AW] |  | > 500 |  | 
NC(=O)c1ccccc1OC(=O)c1ccc2ccccc2c1 [AX] | > 300 | 98.3 | 98.3 | 
NC(=O)c1ccccc1NC(=O)c1ccc2ccccc2n1 [AY] |  | > 500 |  | 
COC(=O)c1ccccc1NC(=O)c1ccc2ccccc2c1 [AZ] | > 300 | 121 | 121 | 

Structure (SMILES) | MIC50 (S. mutans; Table 2) [µM] | IC50 (S. mutans biofilm; [1]) [µM] | IC50 (S. mutans biofilm; Table 2) [µM] | also measured
NC(=O)c1ccccc1OC(=O)c1cc2cc([N+](=O)[O-])ccc2o1 [BA] |  | 279 |  | 
COC(=O)c1ccccc1NC(=O)c1cc2cc([N+](=O)[O-])ccc2o1 [BB] | > 300 | 71.4 | 71.4 | 
NC(=O)c1ccc(NC(=O)c2ccc3ccccc3n2)cc1 [BC] | > 300 | 54.4 | 54.4 | 
COC(=O)c1ccccc1NC(=O)c1ccc2ccccc2n1 [BD] | > 300 | 89.5 | 89.5 | 
COC(=O)c1ccccc1NC(=O)c1cc2ccccc2s1 [BE] | > 300 | 74.9 | 74.9 | 
COC(=O)c1ccccc1NC(=O)c1cnc2ccccc2c1 [BF] |  | 446 |  | 
O=C(Nc1ccccc1I)c1cnc2ccccc2c1 [BG] |  | > 500 |  | 
CCc1ccccc1NC(=O)c1cnc2ccccc2c1 [BH] |  | 204 |  | 
O=C(Nc1ccccc1Br)c1cc2cc([N+](=O)[O-])ccc2s1 [BI] | > 300 | 122 | 122 | 
CC(C)c1ccccc1NC(=O)c1cc2cc([N+](=O)[O-])ccc2s1 [BJ] |  | 262 |  | 
CC(C)c1ccccc1NC(=O)c1cnc2ccccc2c1 [BK] |  | > 500 |  | 
CCc1ccccc1NC(=O)c1cc2cc([N+](=O)[O-])ccc2s1 [BL] | > 300 | 158 | 158 | 
NC(=O)c1cccc(NC(=O)c2ccc3ccccc3c2O)c1 [BP] |  | 270 |  | 
NC(=O)c1ccccc1NC(=O)c1cccc2ccccc12 [BQ] |  | 446 |  | 
Cc1ccc(S(=O)(=O)Nc2ccccc2N)cc1 [BU] |  | > 500 |  | 
NC(=O)c1ccc(NC(=O)c2cc3cc([N+](=O)[O-])ccc3s2)cc1 [BV] |  | 395 |  | 
COc1ccc2[nH]c(C(=O)Nc3ccc(C(N)=O)cc3)cc2c1 [BY] |  | > 500 |  | 
COC(=O)c1ccccc1NC(=O)c1cc2cc([N+](=O)[O-])ccc2s1 [Compound 3C] |  | > 500 |  | 
O=C(Nc1ccccc1)c1cc2cc([N+](=O)[O-])ccc2s1 [Compound 3D] |  | > 500 |  | IC50 (S. mutans biofilm; [2]): > 500 µM
NC(=O)c1ccccc1NC(=O)c1cc2ccccc2[nH]1 [Compound 3E] |  | > 500 |  | 
NC(=O)c1ccccc1NC(=O)c1cc2cc([N+](=O)[O-])ccc2[nH]1 [Compound 3H] |  | > 500 |  | 
O=C(Nc1ccccc1)c1cnc2ccccc2c1 [Compound 3L] |  | > 500 |  | IC50 (S. mutans biofilm; [2]): > 500 µM
NC(=O)c1ccc(NC(=O)c2cnc3ccccc3c2)cc1 [Compound 3T] |  | > 500 |  | 
COc1ccc(/C=C/C(=O)c2ccc3c(c2)OCO3)cc1O [Compound 14] |  |  |  | effect on S. mutans biofilm in the preliminary screen (S. mutans biofilm; chalcones, 200 μM): no anti-biofilm effects
O=c1c(O)c(-c2cc(O)c(O)c(O)c2)oc2cc(O)ccc12 [PAY] |  |  |  | IC50 (S. mutans biofilm; Table 3): 74.5 ± 9.8 µM
O=c1c(O)c(-c2ccc(O)cc2)oc2ccccc12 [SN-II-78] |  |  |  | IC50 (S. mutans biofilm; Table 3): 200 ± 10 µM
